Results on three compounds are retold here after PMC8507159, “Degradation of epigallocatechin and epicatechin gallates by a novel tannase TanHcw from Herbaspirillum camelliae” (Microbial Cell Factories, 2021).

The subject of the test is T1, TanHcw.
T1 construct: C-terminal His-tag, pET23a, E. coli BL21(DE3) pLysS; 39 kDa on gel
In words: gallic acid release, rhodanine chromogen at […] nm; Lineweaver-Burk. It counts as biochemical, Herbaspirillum camelliae. The following applies: 0.1-2.0 mM substrate.

By Km is commonly meant the concentration of substrate that gives half-maximal velocity. For `O=C(O[C@@H]1Cc2c(O)cc(O)cc2O[C@@H]1c1ccc(O)c(O)c1)c1cc(O)c(O)c(O)c1` [ECG, (–)–epicatechin-3-gallate], the Km (pH 7.0, 40 °C) amounted to 330 ± 10 µM.
The same measure, in the same setting: as for `O=C(O[C@@H]1Cc2c(O)cc(O)cc2O[C@@H]1c1cc(O)c(O)c(O)c1)c1cc(O)c(O)c(O)c1` [EGCG, (–)–epigallocatechin-3-gallate], the figure is 300 ± 10 µM.
On to `COC(=O)c1cc(O)c(O)c(O)c1` [MG, Methyl gallate], for which the Km (pH 6.0, 30 °C) came to 820 ± 20 µM.
